Our source for the Ki values is ChEMBL document CHEMBL1141714, “Peptidyl epoxides extended in the P' direction as cysteine protease inhibitors: effect on affinity and mechanism of inhibition” (Bioorg Med Chem, 2008).

Experiment [1] deals with T1, Papain (Carica papaya, UniProt P00784).
T1 sequence (P00784 whole entry): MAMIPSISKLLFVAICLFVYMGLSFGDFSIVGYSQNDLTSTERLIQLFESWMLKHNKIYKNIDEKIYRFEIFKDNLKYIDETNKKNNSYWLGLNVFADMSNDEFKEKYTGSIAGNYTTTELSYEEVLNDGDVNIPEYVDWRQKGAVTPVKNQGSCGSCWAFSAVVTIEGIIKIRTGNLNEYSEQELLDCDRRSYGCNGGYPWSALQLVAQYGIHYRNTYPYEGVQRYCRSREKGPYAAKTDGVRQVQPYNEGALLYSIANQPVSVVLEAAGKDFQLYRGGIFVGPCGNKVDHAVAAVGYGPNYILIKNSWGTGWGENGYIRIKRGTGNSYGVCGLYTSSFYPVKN
The experiment can be described thus: Binding affinity to Carica papaya papain treated up to 2 hrs at 25 degC by Dixon plot.

The target in experiment [2] is Cathepsin B (Homo sapiens, UniProt P07858). The experiment can be described thus: Binding affinity to cathepsin B treated up to 2 hrs at 37degC by Dixon plot.

`O=C(N[C@@H](Cc1ccccc1)C(=O)NCC1CO1)OCc1ccccc1` (stereo partly specified): the Ki in experiment [1] was 390 µM; in experiment [2], 1020 µM.

With `COC(=O)[C@H](C)NC(=O)[C@H](C)NC(=O)C[C@@H]1O[C@H]1CNC(=O)[C@H](Cc1ccccc1)NC(=O)OCc1ccccc1`, the Ki stood at 73 µM in experiment [1] and 244 µM in experiment [2].

In the case of `COC(=O)[C@H](C)NC(=O)[C@H](C)NC(=O)C[C@H]1O[C@H]1CNC(=O)[C@H](Cc1ccccc1)NC(=O)OCc1ccccc1`, the results for the Ki in experiment [1] and in experiment [2] were 18 µM and 94 µM, respectively.
